Test results as given in patent US7709511B2, “Benzothiazolone derivatives” (AstraZeneca AB, priority 2005, dated 2010).
Where a name gives a salt, the structure may show the parent alone.

How the values were obtained:
[1] = biological target: T1, recombinant human α1D receptor (Homo sapiens, UniProt P25100); assay: Adrenergic α1D selectivity assay, inhibition of [3H]-prazosin binding to membranes; conditions: HEK293 membranes, [3H]-prazosin 0.3 nM; read-out: α1 bind pIC50 (converted)
T1 construct: made in house; host or cells: HEK293 cells (membranes)
T1 sequence (P25100 1-572): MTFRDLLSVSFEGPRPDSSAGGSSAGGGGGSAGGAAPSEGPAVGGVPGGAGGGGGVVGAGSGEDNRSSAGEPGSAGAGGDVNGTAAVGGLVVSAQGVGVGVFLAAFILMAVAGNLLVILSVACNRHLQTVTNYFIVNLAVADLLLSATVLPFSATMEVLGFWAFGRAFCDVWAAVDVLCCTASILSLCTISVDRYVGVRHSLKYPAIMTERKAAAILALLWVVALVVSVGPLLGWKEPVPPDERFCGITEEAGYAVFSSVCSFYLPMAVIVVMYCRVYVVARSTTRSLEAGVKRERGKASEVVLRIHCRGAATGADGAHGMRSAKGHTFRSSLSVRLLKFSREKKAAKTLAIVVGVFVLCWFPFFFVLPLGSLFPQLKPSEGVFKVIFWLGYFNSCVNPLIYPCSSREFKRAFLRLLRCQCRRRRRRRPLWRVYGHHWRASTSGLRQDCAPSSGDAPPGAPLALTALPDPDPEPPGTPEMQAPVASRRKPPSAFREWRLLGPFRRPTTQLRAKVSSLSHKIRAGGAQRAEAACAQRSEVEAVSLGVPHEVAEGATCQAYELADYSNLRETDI
Experimental: Membranes were prepared from human embryonic kidney 293 (HEK293) cells expressing recombinant human α1D receptor. These were diluted in Assay Buffer (50 mM HEPES, 1 mM EDTA, 0.1% gelatin, pH 7.4) to provide a final concentration of membranes that gave a clear window between maximum and minimum specific binding.
Assays were performed in U-bottomed 96-well polypropylene plates. 10 μL [^3H]-prazosin (0.3 nM final concentration) and 10 μL of test compound (10× final concentration) were added to each test well. For each assay plate 8 replicates were obtained for [^3H]-prazosin binding in the presence of 10 μL vehicle (10% (v/v) DMSO in Assay Buffer; defining maximum binding) or 10 μL BMY7378 (10 μM final concentration; defining non-specific binding (NSB)). Membranes were then added to achieve a final volume of 100 μL. The plates were incubated for 2 hours at room temperature and then filtered onto PEI coated GF/B filter plates, pre-soaked for 1 hour in Assay Buffer, using a 96-well plate Tomtec cell harvester. Five washes with 250 μL wash buffer (50 mM HEPES, 1 mM EDTA, pH 7.4) were performed at 4° C. to remove unbound radioactivity. The plates were dried then sealed from underneath using Packard plate sealers and MicroScint-O (50 μL) was added to each well. The plates were sealed (TopSeal A) and filter-bound radioactivity was measured with a scintillation counter (TopCount, Packard BioScience) using a 3-minute counting protocol.
(§1) Total specific binding (B0) was determined by subtracting the mean NSB from the mean maximum binding. NSB values were also subtracted from values from all other wells. […] Data was fitted to a four parameter logistic equation to determine the compound potency, which was expressed as pIC50 (negative log molar concentration inducing 50% inhibition of [^3H]-prazosin binding).

[2] = biological target: T2, recombinant human Dopamine Subtype D2s receptors (Homo sapiens, UniProt P14416); assay: Dopamine D2 selectivity assay, inhibition of [3H]-spiperone binding to membranes; conditions: [3H]-spiperone 0.16 nM; read-out: D2 bind pIC50 (converted)
T2 construct: purchased Perkin Elmer
Experimental: Membranes containing recombinant human Dopamine Subtype D2s receptors were obtained from Perkin Elmer. These were diluted in Assay Buffer (50 mM HEPES, 1 mM EDTA, 120 mM NaCl, 0.1% gelatin, pH 7.4) to provide a final concentration of membranes that gave a clear window between maximum and minimum specific binding.
Assays were performed in U-bottomed 96-well polypropylene plates. 30 μL [^3H]-spiperone (0.16 nM final concentration) and 30 μL of test compound (10× final concentration) were added to each test well. For each assay plate 8 replicates were obtained for [^3H]-spiperone binding in the presence of 30 μL vehicle (10% (v/v) DMSO in Assay Buffer; defining maximum binding) or 30 μL Haloperidol (10 μM final concentration; defining non-specific binding (NSB)). Membranes were then added to achieve a final volume of 300 μL. The plates were incubated for 2 hours at room temperature and then filtered onto PEI coated GF/B filter plates, pre-soaked for 1 hour in Assay Buffer, using a 96-well plate Tomtec cell harvester. Five washes with 250 μL wash buffer (50 mM HEPES, 1 mM EDTA, 120 mM NaCl, pH 7.4) were performed at 4° C. to remove unbound radioactivity. The plates were dried then sealed from underneath using Packard plate sealers and MicroScint-O (50 μL) was added to each well. The plates were sealed (TopSeal A) and filter-bound radioactivity was measured with a scintillation counter (TopCount, Packard BioScience) using a 3-minute counting protocol.
as §1, with “[^3H]-spiperone” for “[^3H]-prazosin”

Adrenergic β2 = biological target: T3, Adrenergic β2 (Homo sapiens, UniProt P07550); assay: Alternative adrenergic β2 mediated cAMP production in H292 cells (AlphaScreen cAMP detection); assay type: cell-based; conditions: for EC50: cAMP, test compounds incubated 60 minutes at room temperature, 300 μM rolipram, read-out: β2 pEC50 (converted); for β2 Int Act: fraction relative to the maximum activity determined for formoterol, 60 minutes incubation
T3 construct: endogenous in cells; host or cells: H292 cells
Experimental: Alternative Adrenergic β2 Mediated cAMP Production Cell Preparation
H292 cells were grown in 225 cm2 flasks incubator at 37° C., 5% CO2 in RPMI medium containing, 10% (v/v) FBS (foetal bovine serum) and 2 mM L-glutamine.
Adherent H292 cells were removed from tissue culture flasks by treatment with Accutase™ cell detachment solution for 15 minutes. Flasks were incubated for 15 minutes in a humidified incubator at 37° C., 5% CO2. Detached cells were re-suspended in RPMI media (containing 10% (v/v) FBS and 2 mM L-glutamine) at 0.05×10^6 cells per mL. 5000 cells in 100 μL were added to each well of a tissue-culture-treated 96-well plate and the cells incubated overnight in a humidified incubator at 37° C., 5% CO2. The culture media was removed and cells were washed twice with 100 μL assay buffer and replaced with 50 μL assay buffer (HBSS solution containing 10 mM HEPES pH7.4 and 5 mM glucose). Cells were rested at room temperature for 20 minutes after which time 25 μL of rolipram (1.2 mM made up in assay buffer containing 2.4% (v/v) dimethylsulphoxide) was added. Cells were incubated with rolipram for 10 minutes after which time test compounds were added and the cells were incubated for 60 minutes at room temperature. The final rolipram concentration in the assay was 300 μM and final vehicle concentration was 1.6% (v/v) dimethylsulphoxide. The reaction was stopped by removing supernatants, washing once with 100 μL assay buffer and replacing with 50 μL lysis buffer. The cell monolayer was frozen at −80° C. for 30 minutes (or overnight).
AlphaScreen™ cAMP Detection
The concentration of cAMP (cyclic adenosine monophosphate) in the cell lysate was determined using AlphaScreen™ methodology. The frozen cell plate was thawed for 20 minutes on a plate shaker then 10 μL of the cell lysate was transferred to a 96-well white plate. 40 μL of mixed AlphaScreen™ detection beads pre-incubated with biotinylated cAMP, was added to each well and the plate incubated at room temperature for 10 hours in the dark. The AlphaScreen™ signal was measured using an EnVision spectrophotometer (Perkin-Elmer Inc.) with the recommended manufacturer's settings. cAMP concentrations were determined by reference to a calibration curve determined in the same experiment using standard cAMP concentrations. Concentration response curves for agonists were constructed and data was fitted to a four parameter logistic equation to determine both the pEC50 and Intrinsic Activity. Intrinsic Activity was expressed as a fraction relative to the maximum activity determined for formoterol in each experiment.

T2 sequence (P14416 1-414 isoform P14416-2): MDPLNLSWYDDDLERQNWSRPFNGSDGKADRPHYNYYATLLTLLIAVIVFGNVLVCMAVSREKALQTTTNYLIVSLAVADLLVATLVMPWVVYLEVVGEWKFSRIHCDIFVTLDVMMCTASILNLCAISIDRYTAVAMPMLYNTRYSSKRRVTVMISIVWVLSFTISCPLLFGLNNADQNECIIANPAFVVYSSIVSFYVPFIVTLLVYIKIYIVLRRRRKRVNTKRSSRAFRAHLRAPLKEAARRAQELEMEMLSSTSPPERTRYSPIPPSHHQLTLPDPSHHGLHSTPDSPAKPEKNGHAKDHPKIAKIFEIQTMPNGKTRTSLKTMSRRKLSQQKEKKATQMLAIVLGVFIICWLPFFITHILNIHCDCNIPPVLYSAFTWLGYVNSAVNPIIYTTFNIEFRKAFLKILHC
T3 sequence (P07550 whole entry): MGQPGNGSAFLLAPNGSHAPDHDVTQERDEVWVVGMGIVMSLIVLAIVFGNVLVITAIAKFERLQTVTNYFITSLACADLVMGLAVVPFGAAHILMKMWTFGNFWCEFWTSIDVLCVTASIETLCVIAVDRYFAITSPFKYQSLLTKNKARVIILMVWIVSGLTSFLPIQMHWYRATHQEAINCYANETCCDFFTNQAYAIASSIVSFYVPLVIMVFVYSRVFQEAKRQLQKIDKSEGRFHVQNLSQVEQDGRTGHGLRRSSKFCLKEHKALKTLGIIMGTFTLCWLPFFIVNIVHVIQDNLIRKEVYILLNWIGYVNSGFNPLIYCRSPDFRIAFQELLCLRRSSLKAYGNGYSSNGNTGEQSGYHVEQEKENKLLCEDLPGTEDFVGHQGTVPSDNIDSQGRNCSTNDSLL

Q: What does the source list for `CCN(CC)CCN(CCNCCc1ccc(O)c2[nH]c(=O)sc12)C(=O)CCOCCc1ccc2ccccc2c1` [Example 32, N-[2-(Diethylamino)ethyl]-N-(2-{[2-(4-hydroxy-2-oxo-2,3-dihydro-1,3-benzothiazol-7-yl)ethyl]amino}ethyl)-3-[2-(2-naphthyl)ethoxy]propanamide]?
A: IC50 [1]: 631 nM; IC50 [2]: 794 nM; EC50 (Adrenergic β2): 10 nM; β2 Int Act (Adrenergic β2): 0.5

Q: With `CCN(CC)CCN(CCNCCc1ccc(O)c2[nH]c(=O)sc12)C(=O)CCOCCc1cccc(O)c1` [Example 29, N-(2-Diethylaminoethyl)-N-{2-[2-(4-hydroxy-2-oxo-2,3-dihydro-1,3-benzothiazol-7-yl)ethylamino]ethyl}-3-[2-(3-hydroxyphenyl)ethoxy]propanamide dihydrobromide] as the compound, how does the IC50 [1] read?
A: 1260 nM

Q: What about the IC50 [2] of the same compound?
A: 251 nM

Q: What about the EC50 (Adrenergic β2) of the same compound?
A: 6.31 nM

Q: And the “β2 Int Act” value (Adrenergic β2)?
A: 0.8

Q: Which results are given for `CCN(CC)CCN(CCNCCc1ccc(O)c2[nH]c(=O)sc12)C(=O)CCOCCc1ccc(Cl)c(Cl)c1` [Example 27, 3-[2-(3,4-Dichlorophenyl)ethoxy]-N-(2-diethylaminoethyl)-N-{2-[2-(4-hydroxy-2-oxo-2,3-dihydro-1,3-benzothiazol-7-yl)ethylamino]ethyl}propanamide dihydrobromide]?
A: IC50 [1]: 1000 nM; IC50 [2]: 3160 nM; EC50 (Adrenergic β2): 31.6 nM; β2 Int Act (Adrenergic β2): 0.6

Q: Which IC50 [1] does the source give for `CCN(CC)CCN(CCNCCc1ccc(O)c2[nH]c(=O)sc12)C(=O)CCOCCc1cccc(Cl)c1Cl` [Example 20, 3-[2-(2,3-Dichlorophenyl)ethoxy]-N-(2-diethylaminoethyl)-N-(2-{[2-(4-hydroxy-2-oxo-2,3-dihydro-1,3-benzothiazol-7-yl)ethyl]amino}ethyl)propanamide ditrifluoroacetate] here?
A: 398 nM

Q: What about the IC50 [2] of the same compound?
A: 1580 nM

Q: What about the EC50 (Adrenergic β2) of the same compound?
A: 10 nM

Q: And the “β2 Int Act” value (Adrenergic β2)?
A: 0.6

Q: How did the IC50 [1] turn out when `CCN(CC)CCN(CCNCCc1ccc(O)c2[nH]c(=O)sc12)C(=O)CCOCCc1cccc(F)c1` [Example 22, N-(2-Diethylaminoethyl)-3-[2-(3-fluorophenyl)ethoxy]-N-{2-[2-(4-hydroxy-2-oxo-2,3-dihydro-1,3-benzothiazol-7-yl)ethylamino]ethyl}propanamide dihydrobromide] was run?
A: 1260 nM

Q: What about the IC50 [2] of the same compound?
A: 5010 nM

Q: And the EC50 (Adrenergic β2)?
A: 7.94 nM

Q: What about the “β2 Int Act” value (Adrenergic β2) of the same compound?
A: 0.8

Q: `CCN(CC)CCN(CCNCCc1ccc(O)c2[nH]c(=O)sc12)C(=O)CCOCCc1ccccc1C(F)(F)F` [Example 17, N-[2-(Diethylamino)ethyl]-N-(2-{[2-(4-hydroxy-2-oxo-2,3-dihydro-1,3-benzothiazol-7-yl)ethyl]amino}ethyl)-3-{2-[2-(trifluoromethyl)phenyl]ethoxy}propanamide ditrifluoroacetate] was tested. Which IC50 [1] did it give?
A: 794 nM

Q: What about the EC50 (Adrenergic β2) of the same compound?
A: 25.1 nM

Q: What about the “β2 Int Act” value (Adrenergic β2) of the same compound?
A: 0.9

Q: How did the IC50 [1] turn out when `CCN(CC)CCN(CCNCCc1ccc(O)c2[nH]c(=O)sc12)C(=O)CCOCCc1ccccc1Cl` [Example 31, 3-[2-(2-Chlorophenyl)ethoxy]-N-(2-diethylaminoethyl)-N-{2-[2-(4-hydroxy-2-oxo-2,3-dihydro-1,3-benzothiazol-7-yl)ethylamino]ethyl}propanamide ditrifluoroacetate] was run?
A: 251 nM

Q: What about the IC50 [2] of the same compound?
A: 5010 nM

Q: What about the EC50 (Adrenergic β2) of the same compound?
A: 20 nM

Q: And the “β2 Int Act” value (Adrenergic β2)?
A: 0.9

Q: Which results are given for `CCN(CC)CCN(CCNCCc1ccc(O)c2[nH]c(=O)sc12)C(=O)CCOCCc1cccc(Cl)c1` [Example 18, 3-[2-(3-Chlorophenyl)ethoxy]-N-[2-(diethylamino)ethyl]-N-(2-{[2-(4-hydroxy-2-oxo-2,3-dihydro-1,3-benzothiazol-7-yl)ethyl]amino}ethyl)propanamide ditrifluoroacetate]?
A: IC50 [1]: 794 nM; IC50 [2]: 2510 nM; EC50 (Adrenergic β2): 5.01 nM; β2 Int Act (Adrenergic β2): 0.7
